The assay deals with MOLM-13 acute myeloid leukemia cells. Kind of assay: MOLM-13 quizartinib drug resistance model (cell growth under continual drug treatment). Format: cell-based. On the procedure:
Since the ITD mutation, found in ˜20% of AML patients, hyperactivates FLT3 signaling and results in poor prognosis and relapse, non-resistant, drug-sensitive cells were treated with a continual dose of 2 nM quizartinib. This drug is a selective type II kinase inhibitor targeting FLT3. […] MOLM-13 acute myeloid leukemia cells harboring heterozygous FLT3 internal tandem duplication (ITD) were obtained from the DSMZ-German Collection of Microorganisms and Cell Cultures (ACC 554). Cells were maintained in RPMI 1640 (Gibco 11875-093) supplemented with 10% FBS and penicillin/streptomycin, and sub-cultured every 2-3 days while maintaining a density range of 2.5 E5-1.5 E6 cells/ml. For generation of the quizartinib-resistant MOLM-13 line, cells were continually treated with 2 nM quizartinib (Selleckchem AC220) or DMSO vehicle control for matched parental control line and drug replenished at each subculturing until emergence of resistant clones at 5 weeks duration in culture. Genomic DNA (Zymo Research Quick-DNA Microprep w\Plus Kit, D3020) or total RNA (Qiagen RNeasy Plus Kit, 74034) was isolated from quizartinib-resistant and matched parental MOLM-13 cells at time of FACS sorting to generate bulk sequencing control libraries for comparison to single cell datasets and for quantitative PCR template.

One molecule from patent US20250297243A1, “SINGLE CELL MULTIOMICS” (BioSkryb Genomics, Inc., priority 2022, published 2025) can be followed below.

For `CC(C)(C)c1cc(NC(=O)Nc2ccc(-c3cn4c(n3)sc3cc(OCCN5CCOCC5)ccc34)cc2)no1` [quizartinib], where the note is “continual 2 nM quizartinib, drug replenished at each subculturing”, the “emergence of resistant clones, duration in culture” value came to 5 weeks. Further, for the setting “continual dose of 2 nM quizartinib, FLT3 ITD MOLM-13 cells, before resistance emerged”, the “growth inhibition/apoptosis of drug-sensitive MOLM-13 cells” value was “marked growth inhibition/apoptosis”.
